Data reported in patent US20130324595A1, “C-GLUCOSIDIC ELLAGITANNIN COMPOUNDS FOR USE FOR ALTERING THE SUPRAMOLECULAR ARRANGEMENT OF ACTIN AND FOR THE TREATMENT OF OSTEOPOROSIS, CANCER, BACTERIAL INFECTION AND VIRAL INFECTION” (priority 2011, published 2013).
“Also recorded” adds a separate entry of the source. *1 amine or outer side, *2 acyl side, *3 side chain or, on linkers, in order; H or OH if unused. Where a SMILES comes first, the peptide text is derived from it. Bridges are numbered along the chain shown (N, C = ends). [ ]: non-standard residue; d: D form. Trp(2-yl) = O=C([C@H](Cc1c([*:3])[nH]c2ccccc12)N[*:1])[*:2]; Leu(4R-OH,5-OH) = C[C@](O)(CO)C[C@H](N)C(=O)O; cisHyp = O=C(O)[C@@H]1C[C@H](O)CN1

Key:
bone resorption = conditions: by inhibiting calcium release; cited from earlier work
[1] = system: actin cytoskeleton in bovine aortic endothelial cells (BAEc); experiment: effect on the actin cytoskeleton (stress fibers) in living BAEc; type: cell-based
Excerpt: The inventors' initial interest in studying these C-glucosidic ellagitannins stems from the premise that the highly pre-organized medium-sized ring-containing multiple-phenol array featured by such natural products should be structurally well-suited to interfere with the construction of protein-made cellular architectures, on top of the list of which are actin filaments and microtubules. The inventors thus decided to probe the latter hypothesis by first examining the effect of a selection of four C-glucosidic ellagitannins on the actin cytoskeleton in living cells. […] The selected compounds were the two most abundant C-glucosidic ellagitannins found in the heartwood of oak species, vescalagin and its C-1 epimer castalagin, and their corresponding two minor congeners, vescalin and castalin, both lacking the hexahydroxydiphenoyl (HHDP) unit at positions 4 and 6 of the glucose core (FIG. 1). The inventors used bovine aortic endothelial cells (BAEc), a well-characterized type of primary cells. Any of the four ellagitannins used at 50 μM rapidly provoked the disappearance of the internal stress fiber network observed in control cells.

microtubule network = experiment: alteration of the microtubule network in treated cells; type: cell-based
osteoclast [2] = conditions: cited from earlier work
actin (G-actin/F-actin) = experiment: in vitro actin polymerization, F-actin (pellet) versus G-actin (supernatant) at steady state; type: biochemical; conditions: for G-actin/F-actin ratio at steady state: vescalagin 100 μM, cytochalasin D 4 μM, phalloidin 2 μM
Experimental: (§1) FIG. 4. A. Actin polymerization at its steady state in both permissive and non-permissive conditions was continued (30 min) in the presence of either alexa633-phalloidin or vescalagin-FITC. […] B. This effect is dose-dependent. C.
In the same way, quantifying the amount of F-actin (pellet) versus that of G-actin (supernatant) at the steady state was achieved by Western blot after high-speed centrifugation of samples treated with either vescalagin (100 μM), cytochalasin D (4 μM) or phalloidin (2 μM). […] The same effect was observed when using the vescalagin-FITC conjugate (FIG. 4C).

actin cytoskeleton = experiment: reversibility of cytoskeletal alterations by washing out; type: cell-based
Excerpt: The vescalagin-induced F-actin disrupting effect seen in BAEc was also observed in fibroblast cells (baby hamster kidney cells, BHK), which also express β-actin as the main actin isoform, as well as in smooth muscle cells (A7r5), which in contrast predominantly express α-actin.
It rapidly enters cells, and this despite its high hydrophilicity. Its dose-dependent effects on the actin cytoskeleton relies on its interaction with F-actin without any perturbation of the microtubule network. […] The results found by the inventors are consistent with a mode of action through which the binding of vescalagin occurs along the length of the actin filament, probably at the protein-protein interface of the so-polymerized actin supramolecular association. The presence of two analogous polyhydroxylated arene motifs (i.e., the NHTP and HHDP units, see FIG. 1) likely constitutes the key structural feature that enables vescalagin to wind F-actin into balls by engaging it through multiple intra- and/or intermolecular contacts. […] Future studies will be devoted to the elucidation of the vescalagin-actin interaction at the molecular level and to the comparative evaluation of the anti-actin effects of the other C-glucosidic ellagitannins initially screened herein. Moreover, the SPR method the inventors developed using a biotinylated vescalagin conjugate to discriminate the binding of vescalagin to F- versus G-actin confirms the value of the technique for the study of polyphenol-protein interactions. Finally, the inventors have to recall that oak-derived C-glucosidic ellagitannins, including vescalagin, are present in wines as a result of their aging in oak-made barrels.

BAEc [3] = experiment: cellular morphology and mitosis, light microscopy; type: cell-based, bovine
Excerpt: (§2) Vescalagin-induced dissolution of stress fibers affected cellular morphology and, eventually, viability. […] Functional consequences on cell behavior translated into impaired endothelial cell wound repair capacity. […] Overall, this ensemble of experimental data illustrates the rapid and sustained effects of vescalagin on cell behavior.

BAEc [4] = experiment: propidium iodide (PI) staining, cytotoxicity; type: cell-based, bovine; conditions: for cytotoxicity by PI staining: 50 μM
Excerpt: as §2

[5] = system: mechanically injured endothelium; experiment: endothelial cell wound repair; type: cell-based, bovine
Excerpt: as §2

actin-GFP in BAEc = experiment: live imaging and FRAP on actin-GFP expressing BAEc; type: cell-based, bovine; conditions: 100 μM
Experimental: FIG. 2. Live imaging of BAEc expressing actin-GFP were subjected to FRAP in the absence or presence of vescalagin (100 μM). A. A boxed region (200×100 pixel square) was photobleached [before (t 0″), immediately after (t 38″) and after photobleaching (t 98″)]; and normalized fluorescence intensity in the boxed region is shown for the entire duration of the FRAP experiment. […] B. Quantitation of the results showing the immobile fraction as calculated from the difference between pre- and post-photobleaching intensities (n=6).
Destabilization of the stress fibers was visualised by the progressive loss of filamentous staining, concomitantly with cell retraction as observed in phase contrast. Noticeably, thick F-actin bundles were maintained. To detect and unveil the internal dynamics of these apparently immobile F-actin bundles, the inventors performed a fluorescence recovery after photobleaching (FRAP) assay on actin-GFP expressing BAEc in the absence or presence of vescalagin (FIG. 2). […] From these experiments, the inventors conclude that vescalagin affects both thin and thick actin fibers, F-actin bundles made of packed actin filaments being less vulnerable to the action of vescalagin than the single filament dendritic meshwork at the cell periphery.

F-actin [6] = experiment: phalloidin binding to vescalagin-decorated F-actin (binding site)
[7] = system: podosomes in bovine aortic endothelial cells (BAEc); experiment: podosome formation in TGF-β stimulated BAEc; type: cell-based; conditions: for inhibition of podosome formation: compound added from the beginning of the TGF-β stimulation (24 h) versus last hour
Experimental: FIG. 7. Dose responses of endothelial cells following vescalagin or vescalin treatment. BAEc were incubated for 24 hours with TGF-β (which stimulates formation of podosomes), and different concentrations of vescalagin or vescalin were added either from the beginning of the TGF-β stimulation, or during the last hour of stimulation. Cells were then fixed and treated for immunofluorescence analysis. Podosomes were visualized by double staining using phalloidin (a F-actin marker) and cortactin (a podosome marker). The percentage of total cells showing podosomes was then quantified and compared to the control (cells incubated with TGF-β only). A. BAEc were stimulated for 24 hours with TGF-β, and vescalagin or vescalin was added during the last hour of stimulation. B. BAEc were stimulated for 24 hours with TGF-β, and vescalagin or vescalin was added from the beginning of the TGF-β stimulation.
In this assay, bovine aortic endothelial cells (BAEc) were used. These cells form podosomes following a few hours of incubation with TGF-β. Cells were fixed after 24 hours of stimulation. Two protocols were tested. In the first protocol, cells were stimulated for 24 hours with TGF-β, and vescalagin or vescalin was added during the last hour of stimulation (FIG. 7A). In the second protocol, cells were stimulated for 24 hours with TGF-β, and vescalagin or vescalin was added from the beginning of the TGF-β stimulation (FIG. 7B). In both cases, cells were then fixed and treated for immunofluorescence analysis. Podosomes were visualized by double staining using phalloidin (a F-actin marker) and cortactin (a podosome marker). The percentage of total cells showing podosomes was then quantified and compared to the control (cells incubated with TGF-β only) (FIGS. 7A and 7B).

F-actin [8] = experiment: in vitro actin polymerization, high-speed centrifugation, stained pellet; type: binding; conditions: 30 min at steady state
Experimental: as §1
To explore whether or not the interaction between vescalagin and actin was direct, the inventors set up an in vitro assay based on actin polymerization from a solution of Ca^2+-actin-ATP monomers. Spontaneous polymerization occurs when Ca^2+ is replaced by Mg^2+ provided by the F-actin buffer. The inventors performed high-speed centrifugation of the samples to separate the neo-formed polymers from the monomers to discriminate binding of vescalagin to either F-actin, G-actin or both. To visualize these presumptive molecular associations, the inventors used again the vescalagin-bearing fluoprobe and a fluorescent Alexa633-phalloidin to stain F-actin. Actin polymerization was carried out until it reached its steady state in both permissive and non-permissive conditions (i.e., in the presence or absence of Mg^2+-containing F-buffer). The experiment was then continued for 30 min in the presence of either vescalagin-FITC conjugate or Alexa633-phalloidin, and the formation of actin polymers was then assessed by high-speed centrifugation.

osteoclast [9] = conditions: cited from earlier work; remark: listed apart in the source

For `O=C(OC1C(OC(=O)c2cc(O)c(O)c(O)c2Oc2cc3c(c(O)c2O)-c2c(cc(O)c(O)c2O)C(=O)OC(C2OC(=O)c4cc(O)c(O)c(O)c4-c4c(cc(O)c(O)c4O)C(=O)OCC2O)C(C(O)c2c(O)cc4c(c2O)CC(O)C(c2ccc(O)c(O)c2)O4)OC3=O)C(O)OC2COC(=O)c3cc(O)c(O)c(O)c3-c3c(cc(O)c(O)c3O)C(=O)OC21)c1cc(O)c(O)c(O)c1` (stereo not shown) [camelliatannin D], the bone resorption (bone resorption) is given as “potentially inhibits bone resorption”.
In the case of `C=C1[C@@H](C)[C@H]2[C@H](Cc3ccccc3)NC(=O)[C@]23[C@H](OC(C)=O)/C=C/[C@@](C)(O)C(=O)[C@@H](C)C/C=C/[C@H]3[C@@H]1O` [cytochalasin D, reference compound], the “effect on actin configuration (stress fibers)” value ([1]; BAEc, cytochalasin D comparison) is reported as “also effective” and the “alteration of the microtubule network” value (microtubule network) is reported as “no alteration of the microtubule network”.
For `O=C1O[C@H]2[C@H](O)[C@@H](OC(=O)c3cc(O)c(O)c4c3[C@@H]3C1=CC(=O)C(O)(O)C3(O)O4)[C@H](OC(=O)c1cc(O)c(O)c(O)c1)O[C@@H]2CO` (stereo partly shown) [furosin], the “osteoclast differentiation and function” value (osteoclast [2]) is listed as “inhibitory effect”.
In the case of `C[C@@H]1NC(=O)[C@H](C[C@@](C)(O)CO)NC(=O)[C@@H]2Cc3c([nH]c4ccccc34)SC[C@H](NC(=O)[C@@H]([C@H](C)O)NC1=O)C(=O)N1C[C@@H](O)C[C@H]1C(=O)N[C@@H](C)C(=O)N2` [phalloidin, reference compound] (cyclo(A[dT]C[cisHyp]A[Trp(2-yl)][Leu(4R-OH,5-OH)]); thioether 3-6), the “G-actin/F-actin ratio at steady state” value (actin (G-actin/F-actin)) is reported as “marked depletion of G-actin”.
In the case of `O=C1OCC2OC(=O)c3cc(O)c(O)c(O)c3-c3c(O)c(O)c(O)c4c3C(=O)OC(C2OC(=O)c2cc(O)c(O)c(O)c2-c2c1cc(O)c(O)c2O)C1OC(=O)c2c-4c(O)c(O)c(O)c2C1O` (stereo not shown) [vescalagin], the “relative activity within the series evaluated” value ([1]; four C-glucosidic ellagitannins) is reported as “most active compound of the series”, the “alteration of the microtubule network” value (microtubule network) is reported as “no alteration of the microtubule network” and the “reversibility of actin cytoskeleton alterations by washing” value (actin cytoskeleton; treatment 1 hour, 100 μM) is reported as “reversible by washing”. For the same compound, the “reversibility of actin cytoskeleton alterations by washing” value (actin cytoskeleton; treatment 24 hours, 50 μM) was “reversible by washing”, the “reversal of cytoskeletal alterations by washing out with fresh medium” value (actin cytoskeleton; within 1 h) was “completely reversed” and the “reversibility of effects on the actin cytoskeleton” value (actin cytoskeleton; within 1 h of treatment, up to 100 μM) was “fully reversible”. For the same compound, the mitosis (BAEc [3]; 50 μM) was “still observed”, the mitosis (BAEc [3]; 100 μM) was “impaired” and the cell morphology (BAEc [3]; range of concentrations and incubation times applied) was “changed their morphology from a well spread to a more retracted appearance”. The “cytotoxicity by PI staining” value (BAEc [4]; 6 h) was “no cytotoxicity”, the “cytotoxicity by PI staining” value (BAEc [4]; 24 h) was “no cytotoxicity” and the “cell death (apoptotic nuclei)” value (BAEc [4]; 100 μM, 24 h) was “irreversible commitment to cell death; also recorded: presence of apoptotic nuclei”. The “serum-stimulated healing of mechanically injured endothelium” value ([5]; 20 μM) was “reduced by about half”, the cell viability ([5]; 100 μM, 6 h) was “still compatible with the maintenance of cell viability” and the “repopulation of the denudated area” value ([5]; 100 μM, 6 h) was “remained virtually unpopulated”. The “actin-GFP distribution, live imaging” value (actin-GFP in BAEc) was “immediate alteration of actin-GFP distribution at cell margin”, the “immobile fraction of actin (FRAP)” value (actin-GFP in BAEc; n=6) was “increases the immobile fraction of actin” and the “dose dependence of the G-actin depletion” value (actin (G-actin/F-actin)) was “dose-dependent manner”. For the same compound, the “G-actin/F-actin ratio at steady state” value (actin (G-actin/F-actin)) was “marked depletion of G-actin”, the “binding site on F-actin relative to phalloidin” value (F-actin [6]) was “does not bind at the same site(s) as phalloidin” and the “inhibition of podosome formation (percentage of cells showing podosomes)” value ([7]; 24 h TGF-β, vescalagin versus vescalin) was “stronger inhibitor activity than vescalin”. For the same compound, the “inhibition of podosome formation” value [7] was “less pronounced effects”.
In the case of `O=C1O[C@H](CO)[C@@H](O)[C@@H]2OC(=O)c3c(c(O)c(O)c(O)c3-c3c(O)c(O)c(O)c4c3C(=O)O[C@H]2[C@@H]4O)-c2c1cc(O)c(O)c2O` [vescalin], the “inhibition of podosome formation” value [7] is reported as “less pronounced effects”.
In the case of fluorescein isothiocyanate [FITC], the “binding to F-actin (stained pellet after high-speed centrifugation)” value (F-actin [8]) is reported as “no F-actin was detected”.
In the case of roburin C, the “inhibition of osteoclast differentiation and function” value (osteoclast [9]) is listed as “highest potency”.
In the case of roburin D, the “inhibition of osteoclast differentiation and function” value (osteoclast [9]) is listed as “highest potency”.
